Experimental data taken from patent US20220274947A1, “NOVEL HETEROARYL-TRIAZOLE COMPOUNDS AS PESTICIDES” (Bayer Aktiengesellschaft, priority 2019, published 2022).

Tests used:
Assay type in all cases: in vivo
[1] = tested on: Rhipicephalus microplus; assay: Rhipicephalus (Boophilus) microplus in-vitro contact test, larval cattle tick, strain Parkhurst (BOOPMI Cont); conditions: application rate 5 μg/cm^2 (=500 g/ha), tick larvae, after 48 hours, read-out: activity (efficacy: 100% means all larvae are dead or moribund)
Description: Rhipicephalus (Boophilus) Microplus—In-Vitro Contact Tests Larval Cattle Tick (Strain Parkhurst, Resistant Against Synthetic Pyrethroids) (BOOPMI Cont)
9 mg compound is solved in 1 mL acetone and diluted with acetone to the desired concentration. 250 μL of the test solution is filled in 25 mL glass test tubes and homogeneously distributed on the inner walls by rotation and tilting on a shaking device (2 h at 30 rpm). With a compound concentration of 900 ppm, an inner surface of 44.7 cm^2 and a homogeneous distribution, a dose of 5 μg/cm^2 is achieved.
After the solvent has evaporated, each test tube is filled with 20-50 cattle tick larvae (Rhipicephalus microplus), closed with a perforated lid and incubated in a horizontal position at 85% relative humidity and 27° C. in an incubator. After 48 hours efficacy is determined. The larvae are patted on the ground of the tubes and negative geotactic behavior is recorded.
An efficacy of 100% means all larvae are dead or moribund; 0% means no larvae are dead or moribund.

[2] = tested on: Spodoptera frugiperda; assay: Spodoptera frugiperda spray test; conditions: in Zea mays, 168 h, read-out: activity (mortality)
Description: Spodoptera Fruaiperda—Spray Test
Solvent: 78.0 parts by weight acetone • 1.5 parts by weight dimethylformamide Emulsifier: alkylarylpolyglycol ether
(§1) To produce a suitable preparation of active compound, 1 part by weight of active compound is mixed with the stated amount of solvents and is diluted with water, containing an emulsifier concentration of 1000 ppm, to the desired concentration. Further test concentrations are prepared by dilution with emulsifier containing water.
Maize (Zea mays) leaf sections are sprayed with a preparation of the active ingredient of the desired concentration. Once dry, the leaf sections are infested with fall armyworm larvae (Spodoptera frugiperda).
After 7 days mortality in % is determined. 100% means all caterpillars have been killed and 0% means none of the caterpillars have been killed.

[3] = tested on: Diabrotica balteata; assay: Diabrotica balteata spray test; conditions: 168 h, wheat seeds, larvae, after 7 days, read-out: activity (efficacy: 100% means all seedlings have grown up like in the untreated, uninfected control); for pest or weed control at 32 µg/disc, 100 g/ha: application rate 100 g/ha (=32 μg/well); for pest or weed control at 160 µg/disc, 500 g/ha: application rate 500 g/ha (=160 μg/well)
Description: Diabrotica balteata—Spray Test Solvent: 78.0 parts by weight of acetone • • 1.5 parts by weight of dimethylformamide Emulsifier: alkylarylpolyglycol ether
as §1, with “solvent,” for “solvents”, “and the concentrate” for “and”
Soaked wheat seeds (Triticum aestivum) are placed in a multiple well plate filled with agar and some water and are incubated for 1 day to germinate (5 seeds per well). The germinated wheat seeds are sprayed with a test solution containing the desired concentration of the active ingredient. Afterwards each unit is infected with 10-20 larvae of the banded cucumber beetle (Diabrotica balteata).
After 7 days efficacy in % is determined. 100% means all the seedlings have grown up like in the untreated, uninfected control; 0% means none of the seedlings have grown.

[4] = tested on: Ctenocephalides felis; assay: Ctenocephalides felis oral test (CTECFE Oral); conditions: 48 h, read-out: activity (mortality)
Description: Ctenocephalides felis—Oral Test (CTECFE Oral) Solvent: dimethyl sulfoxide
To produce a suitable preparation of active compound, 10 mg of active compound are dissolved in 0.5 mL solvent, and the concentrate is diluted with cattle blood to the desired concentration.
Approximately 20 adult unfed cat fleas (Ctenocephalides felis) are placed in flea chambers. The blood chamber, sealed with parafilm on the bottom, are filled with cattle blood supplied with compound solution and placed on the gauze covered top of the flea chamber, so that the fleas are able to suck the blood. The blood chamber is heated to 37° C. whereas the flea chamber is kept at room temperature.
After 2 days mortality in % is determined. 100% means all the fleas have been killed; 0% means none of the fleas have been killed.

[5] = tested on: Rhipicephalus microplus; assay: Rhipicephalus (Boophilus) microplus injection test (BOOPMI Inj); conditions: 168 h, injection into adult engorged female ticks, egg deposition after 7 days, read-out: activity (efficacy: 100% means all eggs are infertile); for pest or weed control at 0.004 mg: application rate 4 μg/tick; for pest or weed control at 0.02 mg: application rate 20 μg/tick
Description: Rhipicephalus (Boophilus) Microplus—Injection Test (BOOPMI Inj)
Solvent: dimethyl sulfoxide
To produce a suitable preparation of active compound, 10 mg of active compound are dissolved in 0.5 mL solvent, and the concentrate is diluted with solvent to the desired concentration.
Five adult engorged female ticks (Rhipicephalus microplus) are injected with 1 μL compound solution into the abdomen. The ticks are transferred into replica plates and incubated in a climate chamber.
After 7 days egg deposition of fertile eggs is monitored. Eggs where fertility is not visible are stored in a climate chamber till hatching after about 42 days. An efficacy of 100% means all eggs are infertile; 0% means all eggs are fertile.

[6] = tested on: Rhipicephalus sanguineus; assay: Rhipicephalus sanguineus in-vitro contact test, adult brown dog ticks (RHIPSA Cont); conditions: 48 h, after 48 hours, read-out: activity (efficacy: 100% means all ticks are dead or moribund); for pest or weed control at 1 µg/cm2, 100 g/ha: application rate 1 μg/cm^2 (=100 g/ha); for pest or weed control at 5 µg/cm2, 500 g/ha: application rate 5 μg/cm^2 (=500 g/ha)
Description: Rhipicephalus sanguineus-In-Vitro Contact Tests with Adult Brown Dog Ticks ([…] Cont) 9 mg compound is solved in 1 mL acetone and diluted with acetone to the desired concentration. 250 μL of the test solution is filled in 25 mL glass test tubes and homogeneously distributed on the inner walls by rotation and tilting on a shaking device (2 h at 30 rpm). […] After 48 hours efficacy is determined. The ticks are patted on the ground of the tubes and are incubated on a heating plate at 45-50° C. for at most 5 minutes. Immotile or uncoordinated moving ticks, which are not able to escape the heat by climbing upwards, are marked as dead or moribund.

[7] = tested on: Musca domestica strain WHO—N; assay: Musca domestica test (MUSCDO surface treatment & contact assay); conditions: surface concentration 4 mg/m^2, glazed tile, exposure 30 minutes, 24 hours after contact, read-out: efficacy (mortality)
Description: Musca domestica Test (MUSCDO Surface Treatment & Contact Assay) Solvent: Aceton+2000 ppm rapeseed oil methyl ester (RME)
(§2) In order to produce a sufficient, active ingredient containing solution it is necessary to solve the test compound in the solvent-mix (acetone at 2 mg/ml/RME 2000 ppm). This solution is pipetted onto a glazed tile and after evaporation of the acetone, adult flies of the species Musca domestica strain WHO—N are placed onto the dried surface. The exposure time is 30 minutes. Mortality in percent (%) is determined 24 hours after contact of the insects to the treated surface. 100% mortality means that all tested insects are dead, whereas 0% means that no insect died.

[8] = tested on: Myzus persicae; assay: Myzus persicae oral test; conditions: 120 h, read-out: activity (mortality)
Description: Myzus persicae—Oral Test Solvent: 100 parts by weight acetone
To produce a suitable preparation of active compound, 1 part by weight of active compound is mixed with the stated amount of solvent, and the concentrate is diluted with water to the desired concentration.
50 μL compound solution is filled in microtiter plates and 150 μL IPL41 insect medium (33%+15% sugar) is added to obtain a total volume of 200 μL per well. Afterwards the plates are sealed with parafilm through which a mixed population of the green peach aphid (Myzus persicae) can suck on the compound preparation.
After 5 days mortality in % is determined. 100% means all aphids have been killed and 0% means none of the aphids have been killed.

[9] = tested on: Aedes aegypti strain MONHEIM; assay: Aedes aegypti test (AEDSAE surface treatment & contact assay); conditions: exposure 30 minutes, 24 hours after contact, read-out: efficacy (mortality); for mortality at 20 mg/m2: surface concentration 20 mg/m^2, glazed tile
Description: Aedes aegypti Test (AEDSAE Surface Treatment & Contact Assay) Solvent: Aceton+2000 ppm rapeseed oil methyl ester (RME)
as §2, with “mosquitoes” for “flies”, “Aedes aegypti” for “Musca domestica”, “MONHEIM” for “WHO—N”

Compound	pest or weed control at 5 µg/cm2 [1] [%]	mortality at 100 g/ha [2] [%]	pest or weed control at 32 µg/disc, 100 g/ha [3] [%]	mortality at 100 ppm [4] [%]	pest or weed control at 0.004 mg [5] [%]	pest or weed control at 0.02 mg [5] [%]	pest or weed control at 1 µg/cm2, 100 g/ha [6] [%]	other results
C[C@H](NC(=O)c1cc(Cl)cc(Cl)c1)c1nc(C2CC2)nn1-c1ccc(C#N)cn1 [I-5]	100	100	100	100	100	100		mortality at 500 g/ha [2]: 100%; pest or weed control at 160 µg/disc, 500 g/ha [3]: 100%
CC(C)c1nc([C@H](C)NC(=O)c2cc(Br)cc(C(F)(F)F)c2)n(-c2ccc(C#N)cn2)n1 [I-21]	100	100	80	100	100	100	100	pest or weed control at 5 µg/cm2, 500 g/ha [6]: 100%
CC(C)c1nc([C@H](C)NC(=O)c2cc(Br)cc(C#N)c2)n(-c2ccc(C#N)cn2)n1 [I-25]	100	100	100	100	100	100	100	pest or weed control at 5 µg/cm2, 500 g/ha [6]: 80%
C[C@H](NC(=O)c1cc(Cl)cc(OC(F)(F)F)c1)c1nc(C2CC2)nn1-c1ccc(C#N)cn1 [I-33]	100		100		100	100		mortality at 4 mg/m2 [7]: 80 to 100%
C[C@H](NC(=O)c1cc(Br)cc(Br)c1)c1nc(C2CC2)nn1-c1ccc(C#N)cn1 [I-36]	100	100	100	90	100		100	
C[C@H](NC(=O)c1cc(Br)cc(OC(F)(F)F)c1)c1nc(C2CC2)nn1-c1ccc(C#N)cn1 [I-41]	100	100		100	100			
CC(NC(=O)c1cncc(C(F)(F)F)c1)c1nc(Br)nn1-c1ccc(C#N)cn1 (stereo not drawn) [I-50]	100							mortality at 4 ppm [8]: 100%
COc1nc([C@H](C)NC(=O)c2cc(OC(F)(F)F)cc(C(F)F)c2)n(-c2ccc(C#N)cn2)n1 [I-63]	100	100	100					mortality at 4 ppm [8]: 100%
C[C@H](NC(=O)c1cc(Cl)cc(OC(F)(F)F)c1)c1ncnn1-c1cc(NC(=O)c2ccc(F)cc2)ccn1 [II-20]				100	100	100		
Cc1nc([C@H](C)NC(=O)c2cc(Cl)cc(OC(F)(F)F)c2)n(-c2cc(C#N)ccn2)n1 [II-34]	100	100	100		100	100	100	pest or weed control at 5 µg/cm2, 500 g/ha [6]: 100%; mortality at 500 g/ha [2]: 100%; pest or weed control at 160 µg/disc, 500 g/ha [3]: 100%; mortality at 4 mg/m2 ([9]; surface concentration 4 mg/m^2, glazed tile): 80 to 100%; mortality at 20 mg/m2 [9]: 80 to 100%
Cc1nc([C@H](C)NC(=O)c2cccc(Br)n2)n(-c2ccc(C#N)cn2)n1 [II-59]				90	100	100	80	pest or weed control at 5 µg/cm2, 500 g/ha [6]: 80%
CC[C@H](NC(=O)c1cc(Cl)cc(C(F)(F)F)c1)c1nc(C)nn1-c1ncc(OC(F)F)cn1 [II-60]	100			100	100	100		
C[C@H](NC(=O)c1cc(C(F)(F)F)cc(C(F)(F)F)c1)c1ncnn1-c1cc(C(=O)NCC(F)(F)F)ccn1 [II-87]	80	100	100					mortality at 4 ppm [8]: 100%
C[C@H](NC(=O)c1cc(C(F)(F)F)cc(C(F)(F)F)c1)c1ncnn1-c1cc(C(=O)NCC#N)ccn1 [II-89]	80		100		80			mortality at 0.8 ppm [8]: 100%; mortality at 4 ppm [8]: 100%
C[C@H](NC(=O)c1cc(Cl)cc(C(F)F)c1)c1ncnn1-c1ccc(C#N)cn1 [II- 12]								mortality at 20 mg/m2 [9]: 80 to 100%
